According to PMC11696302 (Nature Communications, 2025):

Molecular target: T1, yCPT1 (cholinephosphotransferase) (Saccharomyces cerevisiae, UniProt P17898)
T1 sequence (P17898 1-393): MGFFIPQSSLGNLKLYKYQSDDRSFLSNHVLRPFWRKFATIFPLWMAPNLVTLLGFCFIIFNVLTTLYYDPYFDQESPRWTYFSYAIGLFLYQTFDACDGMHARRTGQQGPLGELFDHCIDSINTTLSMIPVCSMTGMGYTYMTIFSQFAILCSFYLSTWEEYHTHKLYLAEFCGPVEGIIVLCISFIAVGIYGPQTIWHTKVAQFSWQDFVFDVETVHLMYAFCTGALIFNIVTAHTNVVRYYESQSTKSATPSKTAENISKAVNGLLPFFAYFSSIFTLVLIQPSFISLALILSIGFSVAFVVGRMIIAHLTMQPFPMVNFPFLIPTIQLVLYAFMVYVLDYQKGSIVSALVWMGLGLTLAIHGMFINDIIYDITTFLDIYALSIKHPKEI
Test: cryo-EM structure
Format: biochemical

Compound `COc1ccc2c(c[n+](C)c3c4cc5c(cc4ccc23)OCO5)c1OC` [chelerythrine] has an IC50 of 443 nM.
